Experimental data: patent US20170027897A1, “mTORC1 MODULATION BY AMINO ACIDS AND USES THEREOF” (WHITEHEAD INSTITUTE FOR BIOMEDICAL RESEARCH, priority 2013, published 2017)

Experiments:
[1] = cited from earlier work
mTORC1 [2] = assay: Amino acid starvation and re-stimulation of HEK-293T cells, phospho-S6K western blot; type: cell-based, human; settings: whole-cell assays of mTORC1 activity; partly called preliminary evidence
Excerpt: The work described herein determined which amino acids are most critical for signaling to the mTORC1 pathway in HEK-293T cells, the workhorse cell culture system to which we owe much of our understanding about amino acid sensing. The basic experimental paradigm consists of a 50-minute total amino acid starvation followed by a 10-minute stimulation with a customizable set of amino acids. […] The work described herein determined that that there may be one or more missing amino acids that, when added alongside Leu and Arg, could fully activate mTORC1.
To determine the identities of these missing amino acids, the inventors first stimulated cells with the set of essential or the set of nonessential amino acids. […] The inventors then tested triplet amino acid combinations comprised of Leu, Arg, and one additional essential amino acid. […] Cocktails of EAAs that omitted one amino acid at a time were prepared. […] Thus the necessity and sufficiency experiments yielded complementary results, converging on Leu, Arg, and Lys as key signals for mTORC1 activation in 293T cells.
The inventors have explored why this particular combination of amino acids has such synergistic effects on the mTORC1 pathway in 293T cells. Given that both Arg and Lys contain basic side chains, the inventors first wondered if this shared chemical property underlay their abilities to activate mTORC1.
Furthermore, the inventors continue to characterize structure-activity relationships using LRK derivatives with modifications on the carboxy terminus, the amino terminus, and/or the side chain in whole-cell and in vitro lysosomal assays of mTORC1 activity. The inventors first tested amino acid carboxyesters, whose enhanced ability to permeate membranes render them good candidates for lysosomal loading. Once inside the lysosome, amino acid esters are thought to undergo hydrolysis to yield their native counterparts. […] Knowledge of the chemical space around LRK can be used to develop probes for interrogating the LRK/protein(s) interaction interface for isolating and/or enriching the amino acid sensor(s) feeding into mTORC1.

[3] = Free amino acid levels in gastrocnemius muscle by LC-MS in fasted mice; type: in vivo, mouse; settings: upon IP injection of citrulline containing formulations
mTORC1 [4] = assay: Phosphorylated S6 in gastrocnemius muscle and liver of fasted rats after oral gavage or bolus IV injection; type: in vivo; settings: summary of the rat studies
Experimental: FIGS. 23A, 23B, 23C and 23D depict the effect of administering various combinations of amino acids on levels of phosphorylated ribosomal protein S6 (pS6) in gastrocnemius muscle and liver. FIGS. 23A and 23B are bar graphs showing the fold increase in pS6/actin protein ratios in fasted rat gastrocnemius muscle (FIG. 23A) or liver (FIG. 23B) 30 and 60 minutes after administering amino acids via oral gavage. FIGS. 23C and 23D are bar graphs showing the fold increase in pS6/actin protein ratios in fasted rat gastrocnemius muscle (FIG. 23C) or liver (FIG. 23D) 30 and 60 minutes after administering amino acids via intravenous bolus injection.
Rats (n=3), fasted for 24 hours, were administered LRK or LCK via oral gavage or bolus IV injection and gastrocnemius muscle and liver was isolated 30 and 60 minutes later. Gastrocnemius muscle and liver was analyzed by SDS-PAGE followed by western blotting for levels of phosphorylated S6—a marker of mTORC1 activity.

mTORC1 [5] = assay: Assaying L, R, K analogs for mTORC1 modulation in whole cells (pS6K); type: cell-based, human
Experimental: Generally, to test analogs of L, R, and K, whole cells (e.g., HEK293) can be starved of all amino acids (using RPMI—aa) for a period of time (e.g., about 50 min), and then stimulated with a combination of L, R, or K and/or an analog of L, R, or K, and mTORC1 activity can be measured by phosphorylation of an mTORC1 substrate (e.g., S6K).
Below are exemplary conditions which can be used to assay analogs of leucine (e.g., photoleucine (photoLeu)) for their ability to activate or suppress mTORC1 activity.
4) RK+0.1× photoLeu 5) RK+0.5× photoLeu 6) RK+1× photoLeu 7) RK+10× photoLeu
9) LRK+0.1× photoLeu 10) LRK+0.5× photoLeu 11) LRK+1× photoLeu 12) LRK+10× photoLeu
Conditions 3-7 above test whether or not a leucine analog (e.g., photoLeu) can substitute for native Leu. […] Those skilled in the art will appreciate that conditions 3-7 above can be modified to assay other analogs, for example, by replacing RK with LK to assay R analogs or by replacing RK with LR to assay K analogs.
Conditions 8-12 above test whether or not a leucine analog (e.g., photoLeu) can compete against native Leu.
The concentration range of analogs used in the protocol set forth above was from about 0.1× to 10× (relative to RPMI), however, other concentrations may be used, as will be appreciated by the skilled artisan.

mTORC1 [6] = assay: mTORC1 activity in MEFs (immunoblotting); type: cell-based, mouse; settings: AMPK activator treatment
Experimental: FIG. 16A is a bar graph illustrating the decrease in plasma amino acids in all 1 h fasted neonates. […] FIG. 16C is a western blot depicting the time course of mTORC1 and AMPK activity in AMPK-wt, AMPK-DKO, RagA^+/+ and RagA^GTP/GTP MEFs deprived of glucose for 0.5, 2 and 4 h. FIG. 16D is a western blot of whole cell lysates immunoblotted for the indicated proteins, showing control HEK-293T cells or those expressing RagB^GTP were deprived of growth factors, glucose, amino acids, or glucose and amino acids for 1 h and re-stimulated with glucose and/or amino acids for 10 min. FIG. 16E is a graph illustrating the quantification of the western blots on FIG. 12B and FIG. 16D. FIG. 16F is a western blot showing the effect of amino acid esters on mTORC1 activity in wt MEFs. FIG. 16G is a bar graph showing the quantification of amino acids in RagA^+/+ and RagA^GTP/GTP MEFs deprived of glucose (relative to un-starved controls). […]
Maintenance of mTORC1 activity requires the simultaneous presence of growth factors, amino acids, and glucose^1. […] In addition, AMPK activity, as monitored by acetyl-CoA carboxylase (ACC) phosphorylation, was induced to similar levels in glucose-deprived RagA^+/+ and RagA^GTP/GTP cells (FIG. 12B and FIG. 16C), but absent in AMPK-null cells (FIG. 12A).

RagA^GTP/GTP neonates = assay: Survival, glucose homeostasis and autophagy of fasted RagA^GTP/GTP neonates; type: in vivo, mouse
Experimental: NS, not significant. […] FIG. 10G is a series of bar graphs illustrating the quantification of neonatal plasma amounts of branched-chain (BCAA) and essential amino acids at birth (left), after 10 h fasting (middle) and after 10 h fasting with rapamycin treatment (right) (n for +/+, G/+ and G/G, respectively: n=4, 5 and 4 for 0 h; n=4, 4 and 3 for 10 h; n=2, 5 and 3 for rapamycin; mean±s.d.). Values are expressed relative to RagA^+/+ amounts at each time point.

[7] = test system: mice, hindlimb immobilization model of muscle atrophy; assay: Hindlimb immobilization/recovery model of muscle atrophy, gastrocnemius mass; type: in vivo, mouse; settings: left hindlimb immobilized 5 days, 5 days recovery; IP twice daily; rapamycin daily where indicated
Experimental: Mice were subjected to immobilization of the left hind limb for 5 days followed by a 5-day recovery period. Each mouse was injected intraperitoneally twice daily at 9 am and 6 pm during the whole immobilization/recovery periods with the indicated amino acid esters or vehicle control. Rapamycin or vehicle control was injected daily where indicated. Following completion of the study both the right and left gastrocnemius were removed and mass of each muscle was recorded. Percent recovery was calculated by comparing the mass of the left immobilized gastrocnemius to that of the contralateral control leg. Standard error is shown, n=5-6 per treatment.
The protocol of hindlimb immobilization involves casting of the rear left leg, resulting in atrophy of the gastrocnemius and soleus muscles. The rear right leg remains free, and serves as an internal control for gastrocnemius and soleus muscle mass.
The inventors performed an experiment where left hindlimbs were immobilized for 5 days, casts were removed, and a recovery period of 5 days continued until the study endpoint. Animals were injected with PBS as control, L ethyl ester, or LR ethyl esters twice daily. As in the previous experiment, the 1× doses of amino acids and their esters were calculated as 20% of the amount that an adult mouse eats in a 24 h period under ad libitum conditions. […]

mTORC1 [8] = assay: Muscle mTORC1 activation in immobilized and fasted mice after IP injection (phosphorylated S6, 4EBP1); type: in vivo, mouse; settings: 18-hour fast, 30 minutes
Experimental: Mice were subjected to a model of hindlimb immobilization for 5 days in which the left hindlimb was casted as described in Example 2 in order to induce atrophy. Food and water were provided ad libitum. The night before day 6, food was withdrawn and the mice were subjected to an 18-hour overnight fast. […] Right (R; control) and left (L*; immobilized) gastrocnemius muscles were collected 30 minutes after treatment, snap frozen in liquid nitrogen, and processed for western blotting analysis with appropriate antibodies as previously described.

muscle protein synthesis = assay: Muscle protein synthetic rate in starved rats (flooding dose of radiolabeled phenylalanine); type: in vivo, rat; settings: oral, 25% dose, 45 minutes, versus fasted vehicle control
Experimental: FIGS. 24A and 24B depict the effect of various amino acid combinations or a Leu-Arg-Lys tripeptide on phosphorylation of an mTORC1 substrate and the rate of muscle protein synthesis in starved rats.
To address this question, starved rats (n=8) were given oral doses of leucine, LR, LR(k), LC(k) and the LRK peptide and muscle protein synthetic rates were measured by administering a flooding dose of radiolabeled phenylalanine 10 minutes before sacrifice and quantifying uptake of radiolabeled phenylalanine.
Starved rats were dosed with amino acids benchmarked to either 5% of 25% of their daily intake of leucine. Rats were sacrificed 45 minutes after oral gavage and tissues and plasma was collected for mTORC1 signaling assessment, quantification of plasma leucine levels and measurement of protein synthetic rates.

NCCCC[C@H](N)C(=O)O [lysine, L-lysine]
bioavailability of orally ingested amino acid ([1]; Fry C S et al. 2011): superior to leucine and arginine

CCOC(=O)[C@@H](N)CCCCN [lysine ethyl ester]
mTORC1 stimulatory activity of derivative compared with the corresponding native amino acid (mTORC1 [2]): modestly more stimulatory than the corresponding native amino acid

NC(=O)NCCC[C@H](N)C(=O)O [citrulline, L-Citrulline]
conversion of citrulline to arginine [3]: little to no conversion of citrulline to arginine | mTORC1 activation at the level of muscle, as substitute for arginine (mTORC1 [4]): adequate substitute for arginine for mTORC1 activation at the level of muscle | mTORC1 activation in liver, as substitute for arginine (mTORC1 [4]): less potent at activating mTORC1 in liver | circulating citrulline converted to arginine by the kidneys ([1]; Bahri S. et al. 2013): over 80%

CC(C)C[C@H](NC(=O)OCc1ccccc1)C(=O)O
mTORC1 stimulatory activity of derivative compared with the corresponding native amino acid (mTORC1 [2]): retains the ability to signal to mTORC1, albeit with lower potency than native Leu

CC1(C[C@H](N)C(=O)O)N=N1 [photoLeu]
mTORC1 stimulatory activity of derivative compared with the corresponding native amino acid (mTORC1 [2]): retains some mTORC1 stimulatory activity | suppression of pS6K signal caused by baseline LRK (antagonist test) (mTORC1 [5]; LRK + 0.1× to 10× analog (relative to RPMI)): not an antagonist or mTORC1-inactivating competitor against native Leu | pS6K signal when analog substitutes for native Leu (agonist test) (mTORC1 [5]; RK + 0.1× to 10× analog (relative to RPMI)): pS6K signal increases

NC(=O)c1ncn([C@@H]2O[C@H](CO)[C@@H](O)[C@H]2O)c1N [AICAR, aminoimidazole carboxamide ribonucleotide]
mTORC1 activity in RagA^+/+ and RagA^GTP/GTP MEFs (mTORC1 [6]): inhibited mTORC1 in cells of all genotypes

CO[C@H]1C[C@@H]2CC[C@@H](C)[C@@](O)(O2)C(=O)C(=O)N2CCCC[C@H]2C(=O)O[C@H]([C@H](C)C[C@@H]2CC[C@@H](O)[C@H](OC)C2)CC(=O)[C@H](C)/C=C(\C)[C@@H](O)[C@@H](OC)C(=O)[C@H](C)C[C@H](C)/C=C/C=C/C=C/1C [rapamycin]
time to death of fasted RagA^GTP/GTP neonates (RagA^GTP/GTP neonates; treated at birth, untreated ˜14 h, p<0.01): ~21 h

COC(=O)[C@@H](N)CC(C)C [leucine methyl ester]
mTORC1 stimulatory activity of derivative compared with the corresponding native amino acid (mTORC1 [2]): modestly more stimulatory than the corresponding native amino acid

CCOC(=O)[C@@H](N)CC(C)C [leucine ethyl ester, L-leucine ethyl ester]
mTORC1 stimulatory activity of derivative compared with the corresponding native amino acid (mTORC1 [2]): modestly more stimulatory than the corresponding native amino acid | relative gastrocnemius muscle mass compared to control (PBS injected mice) [7]: the only treatment that led to a significant increase in gastrocnemius muscle mass was LR ethyl ester treatment

C[C@H](N)C(=O)O [alanine]
glycaemia of fasted neonates after injection (RagA^GTP/GTP neonates; all neonates regardless of genotype): provoked a significant increase in glycaemia

COC(=O)[C@@H](N)CCCCN [lysine methyl ester]
mTORC1 stimulatory activity of derivative compared with the corresponding native amino acid (mTORC1 [2]): modestly more stimulatory than the corresponding native amino acid

CC(C)C[C@H](N)C(=O)O [leucine, L-leucine]
mTORC1 activity (phosphorylated S6 and 4EBP1) in non-immobilized (R) gastrocnemius (mTORC1 [8]): stimulated mTORC1 in the non-immobilized muscle in all mice | mTORC1 activity (phosphorylated S6 and 4EBP1) in immobilized (L*) gastrocnemius compared to fasted controls (mTORC1 [8]; 5 days immobilization, LRK = 1× (L-Leucine, L-Arginine) plus 0.1× L-Lysine): unable to increase mTORC1 activity in the immobilized (L*) gastrocnemius muscle in four of the 5 mice | muscle protein synthesis (MPS) rate in gastrocnemius (muscle protein synthesis): little difference between fasted rats and rats given leucine alone
